Test system: Influenza A virus
Test: Antiviral activity against influenza A virus H1N1 infected in MDCK cells assessed as inhibition of virus-induced cytopathic effect after 48 hrs by crystal violet staining assay
Format: functional, organism-based

Row | Compound | IC50 [µM]
1 | CC(C)=C1NC(=O)/C(=C(N)\C=C\C[C@H](C)O)C1=O | 276
2 | NC(=O)c1ncn([C@@H]2O[C@H](CO)[C@@H](O)[C@H]2O)n1 [RIBAVIRIN] | 131

From ChEMBL document CHEMBL3108766, “Cladosins A-E, hybrid polyketides from a deep-sea-derived fungus, Cladosporium sphaerospermum” (J Nat Prod, 2014)
